The test system of assay [1] is adenosine uptake into HeLa cells. Briefly: [3H]Adenosine uptake assay in HeLa cells. Type of assay: cell-based. The conditions noted are these: [3H]adenosine accumulation in HeLa cells, compound range 10 μM to 0.032 nM, read-out: ADU inhibition IC50. The procedure, abridged:
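HeLa cells in HBSS + 5% FBS were preincubated 30 min at ambient temperature with compound (ten-point 1:3 series, 10 µM–[…] final), then given [3H]adenosine (added as a 500 nM solution) for 60 min. Cell-associated label was read by scintillating-plate proximity counting; IC50 from 4-parameter fit of cps versus log concentration.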

Assay [2] concerns the target BTK enzyme (recombinant full-length BTK, hBTK) (Homo sapiens (Human), UniProt Q06187). Briefly: BTK enzymatic activity LANCE TR-FRET assay. The assay is classed as biochemical. The conditions noted are these: 50 pM hBTK, 25 μM ATP, 2 μM biotin-A5-peptide; compound range 1 μM to 0.017 nM; read-out: BTK binding IC50.

Like-named read-outs stand apart in the source and are kept apart here.

BTK enzyme (recombinant full-length BTK, hBTK), sequence (Q06187 whole entry): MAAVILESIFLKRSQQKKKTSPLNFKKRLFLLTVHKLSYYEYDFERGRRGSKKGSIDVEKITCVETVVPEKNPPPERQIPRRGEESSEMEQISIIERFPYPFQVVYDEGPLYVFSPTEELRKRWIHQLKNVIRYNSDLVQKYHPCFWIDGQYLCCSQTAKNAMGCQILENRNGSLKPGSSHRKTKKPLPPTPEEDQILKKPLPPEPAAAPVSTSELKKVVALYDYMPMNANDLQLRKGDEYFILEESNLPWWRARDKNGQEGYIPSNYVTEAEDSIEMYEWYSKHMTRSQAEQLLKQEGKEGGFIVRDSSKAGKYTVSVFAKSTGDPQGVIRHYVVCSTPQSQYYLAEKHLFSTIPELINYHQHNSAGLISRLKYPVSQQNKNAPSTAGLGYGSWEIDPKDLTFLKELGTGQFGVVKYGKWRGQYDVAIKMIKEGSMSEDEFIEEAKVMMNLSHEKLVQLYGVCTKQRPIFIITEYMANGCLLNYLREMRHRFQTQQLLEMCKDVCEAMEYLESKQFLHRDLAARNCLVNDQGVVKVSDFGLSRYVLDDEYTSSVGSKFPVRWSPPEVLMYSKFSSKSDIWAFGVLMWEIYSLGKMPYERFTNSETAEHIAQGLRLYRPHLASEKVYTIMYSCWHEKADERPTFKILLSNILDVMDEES

Take `CCOc1cc(C(C)(O)c2cccc(C)c2)ccc1-c1nc([C@@H]2CC[C@H]3CCC(=O)N3C2)n2ccnc(N)c12` (stereo partly drawn) [Example 168, (6R,8aS)-6-(8-amino-1-{2-ethoxy-4-[1-hydroxy-1-(3-methylphenyl)ethyl]phenyl}imidazo[1,5-a]pyrazin-3-yl)hexahydroindolizin-3(2H)-one]: the half-maximal inhibitory concentration (IC50) (as a rule, the concentration at which inhibition is half-maximal) amounted to 3.65 µM in assay [1] and 0.0603 µM in assay [2].
`C[C@@](O)(c1ccc(-c2nc([C@H]3CN4C(=O)CC[C@@H]4CO3)n3ccnc(N)c23)cc1)c1cccc(C(F)(F)F)c1` [Example 169, (3R,8aR)-3-[8-amino-1-(4-{(1R)-1-hydroxy-1-[3-(trifluoromethyl)phenyl]ethyl}phenyl)imidazo[1,5-a]pyrazin-3-yl]hexahydro-6H-pyrrolo[2,1-c][1,4]oxazin-6-one]: the IC50 turned out to be 4.53 µM in assay [1] (Homo sapiens, HeLa) and 0.0072 µM in assay [2].
The corresponding values for `C[C@@](O)(c1ccc(-c2nc([C@@H]3CC[C@H]4N(C3)C(=O)CCC4(F)F)n3ccnc(N)c23)cc1)c1cccc(C(F)(F)F)c1` [Example 170, (7R,9aR)-7-[8-amino-1-(4-{(1R)-1-hydroxy-1-[3-(trifluoromethyl)phenyl]ethyl}phenyl)imidazo [1,5-a]pyrazin-3-yl]-1,1-difluorooctahydro-4H-quinolizin-4-one] are 7.11 µM and 0.556 µM.
The corresponding values for `C[C@@](O)(c1ccc(-c2nc([C@H]3CC[C@@H]4N(C3)C(=O)CCC4(F)F)n3ccnc(N)c23)cc1)c1cccc(C(F)(F)F)c1` [Example 171, (7S,9aS)-7-[8-amino-1-(4-{(1R)-1-hydroxy-1-[3-(trifluoromethyl)phenyl]ethyl}phenyl)imidazo [1,5-a]pyrazin-3-yl]-1,1-difluorooctahydro-4H-quinolizin-4-one] are 7.96 µM and 0.089 µM.
For the compound `C[C@@](O)(c1ccc(-c2nc([C@@H]3CC[C@@H]4[C@@H](C(F)(F)F)CC(=O)N4C3)n3ccnc(N)c23)cc1)c1cccc(C(F)(F)F)c1` [Example 172, (1S,6R,8aR)-6-[8-amino-1-(4-{(1R)-1-hydroxy-1-[3-(trifluoromethyl)phenyl]ethyl}phenyl)imidazo [1,5-a]pyrazin-3-yl]-1-(trifluoromethyl) hexahydroindolizin-3(2H)-one], the IC50 is 5.33 µM in assay [1] (Homo sapiens, HeLa) and 0.258 µM in assay [2].
Taken in the same sequence, the figures for `C[C@@](O)(c1ccc(-c2nc([C@@H]3CC[C@H]4CCC(=O)N4C3)n3c(C(F)(F)F)cnc(N)c23)cc1)c1cccc(C(F)(F)F)c1` [Example 173, (6R,8aS)-6-[8-amino-1-(4-{(1R)-1-hydroxy-1-[3-(trifluoromethyl)phenyl]ethyl}phenyl)-5-(trifluoromethyl)imidazo [1,5-a]pyrazin-3-yl]hexahydroindolizin-3(2H)-one] were 5.11 µM and 0.0222 µM.
Regarding `C[C@@](O)(c1ccc(-c2nc([C@H]3CC[C@@H]4COCC(=O)N4C3)n3c(Cl)cnc(N)c23)cc1)c1cccc(C(F)(F)F)c1` [Example 174, (7S,9aR)-7-[8-amino-5-chloro-1-(4-{(1R)-1-hydroxy-1-[3-(trifluoromethyl)phenyl]ethyl}phenyl)imidazo [1,5-a]pyrazin-3-yl]hexahydropyrido[2,1-c][1,4]oxazin-4(3H)-one], the 50% inhibitory concentration (IC50) in assay [1] (Homo sapiens, HeLa) is 1.16 µM; in assay [2], 0.0857 µM.
Taken in the same sequence, the figures for `C[C@@](O)(c1ccc(-c2nc([C@@H]3CC[C@H]4COCC(=O)N4C3)n3c(Cl)cnc(N)c23)cc1)c1cccc(C(F)(F)F)c1` [Example 175, (7R,9aS)-7-(8-amino-5-chloro-1-(4-{(1R)-1-hydroxy-1-[3-(trifluoromethyl)phenyl]ethyl}phenyl)imidazo [1,5-a]pyrazin-3-yl]hexahydropyrido[2,1-c][1,4]oxazin-4(3H)-one] were 1.38 µM and 0.0015 µM.

The values above are taken from patent publication US10214546B2, “Btk inhibitors” (MERCK SHARP & DOHME CORP., priority 2014, dated 2019).
